Data reported in patent publication US20230310624A1, “AFFIBODY-CYTOTOXIN CONJUGATE FOR ACTIVE TARGETED THERAPY OF TUMORS, NANOPARTICLE THEREOF, PREPARATION METHOD THEREOF AND APPLICATION THEREOF” (priority 2020, published 2023).
Where a SMILES comes first, the peptide text is derived from it. [ ]: non-standard residue; d: D form. The star is where a group is joined. Dolaproine = CO[C@@H]([C@@H]1CCCN1)[C@@H](C)C(=O)O; Dil = CC[C@H](C)[C@H](NC)[C@@H](CC(=O)O)OC; X1 = C[C@@H](N*)[C@@H](O)c1ccccc1; NMeV = CN[C@H](C(=O)O)C(C)C

Assays:
[1] = system: SKOV-3 tumor; assay: therapeutic effects on tumors of SKOV-3 tumor-bearing nude mice; format: in vivo
Description: A cell suspension of SKOV-3 cells in logarithmic growth phase is prepared at a concentration of 4.0><10^6 cells/mL, and inoculated subcutaneously into the right anterior axillary of nude mice, 200 μL per mouse; when the volume of tumor is around 100 mm^3, the mice are randomly selected into 4 groups, 5 in each group, which are respectively a PBS control group, a MMAE 0.6 mg/kg group, a ZHER2:342-MMAE nanoparticle group (the content of MMAE is 0.4 mg/kg), and a ZHER2:342-MMAE nanoparticle group (the content of MMAE is 0.6 mg/kg), wherein 200 μl PBS is injected for the PBS group, 0.6 mg/kg of MMAE is injected for the MMAE 0.6 mg/kg group, ZHER2:342-MMAE (containing 0.4 mg/kg MMAE) is injected for the ZHER2:342-MMAE group (containing 0.4 mg/kg MMAE), and ZHER2:342-MMAE (the content of MMAE is 0.6 mg/kg) is injected for the ZHER2:342-MMAE group (the content of MMAE is 0.6 mg/kg), once every 3 days. After each administration, the survival of tumor-bearing nude mice is observed, and the body weight and tumor size of the mice are measured and photographed for preservation.

[2] = in rats; cited from earlier work
[3] = system: SKOV-3 tumor; assay: long-term cycle imaging in SKOV-3 tumor-bearing nude mice; format: in vivo
Description: A cell suspension of SKOV-3 cells in logarithmic growth phase is prepared at a concentration of 4.0×10^6 cells/mL, and inoculated subcutaneously into the right anterior axillary of nude mice, 200 μL per mouse; when the volume of tumor is around 500 mm^3, two mice are randomly selected as a control group and an experimental group. […] After 4 h and 12 h of injection, ZKKS-Mulaurora imaging system is used to take pictures and analyze the fluorescence intensity of the whole body of the mice.

## CC[C@H](C)[C@@H]([C@@H](CC(=O)N1CCC[C@H]1[C@H](OC)[C@@H](C)C(=O)N[C@H](C)[C@@H](O)c1ccccc1)OC)N(C)C(=O)[C@@H](NC(=O)[C@@H](NC)C(C)C)C(C)C [MMAE, monomethyl auristatin E] (H-[NMeV]V[Dil][Dolaproine]-X1)
[1]; MMAE 0.6 mg/kg, after administration
  body weight of the mice: drops sharply
[1]; MMAE (content) 0.6 mg/kg, once every 3 days
  survival of tumor-bearing nude mice: all died

## CC(=O)O[C@H]1C(=O)[C@@]2(C)[C@H]([C@H](OC(=O)c3ccccc3)[C@]3(O)C[C@H](OC(=O)[C@H](O)[C@@H](NC(=O)c4ccccc4)c4ccccc4)C(C)=C1C3(C)C)[C@]1(OC(C)=O)CO[C@@H]1C[C@@H]2O [paclitaxel]
[2]
  blood half-life period: 1.1 h

## cyanine dye 5.5 [Cy5.5]
[3]; after 4 hours of injection
  whole-body fluorescence distribution: no obvious presence in the mouse body
[3]; after 12 hours
  whole-body fluorescence distribution: basically completely metabolized
